From patent US20030134859A1 (SANKYO COMPANY, LIMITED, priority 2000, published 2003) come the findings set out here.

Like-named read-outs stand apart in the source and are kept apart here.

The subject of one experiment is leptin production. Put plainly: Enhancing activity for leptin production in adipocytes (ELISA). To be noted: leptin concentration as % of control group; for activity at 1 µM / activity at 0.001 µM / activity at 0.01 µM / activity at 0.1 µM: Rattus norvegicus, Adipocyte, read-out: Facilitating activity to produce leptin; for activity at 0.001 µM: 1 nm; for activity at 0.01 µM: 10 nm. It is filed as cell-based, rat. The gist of the method: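 Collagenase-dispersed epididymal adipocytes from 6-week-old male Wistar Imamichi rats, cultured in DMEM/F-12 (1:1) with test compound at final 1 µM, 100 nM, 10 nM or 1 nM (0.1% DMSO) for 24 h at 37 °C, 5% CO2. Leptin in filtrate measured by ELISA; activity = treated/DMSO-control leptin × 100 (%).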
(In general: In an ELISA, binding on a coated surface is turned into a signal by an enzyme label.)

A further experiment relates to Rat white adipocytes. Briefly: Inhibition of the differentiation of adipocytes (Oil Red O). It is filed as cell-based. Particulars: 100 nM test compound, 5 days, Oil Red O ABS550, control = 100%, blank = 0%, Table 3; for activity at 0.1 µM: Rattus norvegicus, Adipocyte, 120 h, read-out: Rate of Differentiation (%). A digest of the protocol: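 Rat white preadipocytes, 5,000 cells/well, given differentiation medium with compound at 100 nM final (0.1% DMSO) for 5 days at 37 °C. Lipid stained with Oil Red O, eluted in DMSO, read at 550 nm; differentiation % relative to DMSO control (100%) and blank (0%).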

For the molecule `CCS(=O)(=O)N(c1ccc(-c2ccc(NC(=O)c3cc([N+](=O)[O-])ccc3Cl)cc2)cc1)S(=O)(=O)CC` [Example 276, N-[4-[4-(N,N-Diethanesulfonylamino)phenyl]phenyl]-(2-chloro-5-nitrophenyl)carboxamide], the activity at 1 µM with leptin production (24 h, 1 μM) came out at 117%. Further, the activity at 0.001 µM with leptin production (24 h) is 108%. Besides, the activity at 0.01 µM in the experiment with leptin production (24 h) came out at 112%. The activity at 0.1 µM was 123% with leptin production (24 h, 100 nm) and 14.9% in the experiment on Rat white adipocytes.

On to `CCCCCN(CC)c1ccc(-c2ccc(NC(=O)c3cc([N+](=O)[O-])ccc3Cl)cc2)cc1` [Example 216, N-[4-[4-(N-Ethyl-N-pentylamino)phenyl]phenyl]-(2-chloro-5-nitrophenyl)carboxamide], for which the activity at 1 µM in the experiment on leptin production (24 h, 1 μM) came to 117%. For the same molecule, in the experiment on leptin production (24 h), the activity at 0.01 µM was 113%. Moreover, the activity at 0.1 µM with leptin production (24 h, 100 nm) was 112%; in the experiment on Rat white adipocytes, 32.1%.

For `CCCCN(CCCC)c1ccc(-c2ccc(NC(=O)c3cc([N+](=O)[O-])ccc3Cl)cc2)cc1` [Example 207, N-[4-[4-(N,N-Dibutylamino)phenyl]phenyl]-(2-chloro-5-nitrophenyl)carboxamide], the activity at 1 µM with leptin production (24 h, 1 μM) came out at 116%. For the same molecule, in the experiment on leptin production (24 h), the activity at 0.01 µM was determined as 107%. Also, the activity at 0.1 µM came to 110% with leptin production (24 h, 100 nm) and 32.7% in the experiment on Rat white adipocytes.

`CCCCCN(CCCCC)c1ccc(-c2ccc(NC(=O)c3cc([N+](=O)[O-])ccc3Cl)cc2)cc1` [Example 214, N-[4-[4-(N,N-Dipentylamino)phenyl]phenyl]-(2-chloro-5-nitrophenyl)carboxamide]: in the experiment on leptin production (24 h, 1 μM), the activity at 1 µM is 125%. Besides, the activity at 0.01 µM with leptin production (24 h) worked out at 112%. The activity at 0.1 µM in the experiment with leptin production (24 h, 100 nm) stood at 125%; in the experiment with Rat white adipocytes, 31.7%.

Regarding `O=C(Nc1ccc(NC(=O)c2cc([N+](=O)[O-])ccc2Cl)nc1)c1cc([N+](=O)[O-])ccc1Cl` [Example 64, 2,5-bis(2-Chloro-5-nitrobenzoylamino)pyridine], in the experiment on leptin production (24 hr), the activity at 0.001 µM is 110% and the activity at 0.01 µM is 112%. Besides, the activity at 0.1 µM in the experiment with leptin production (100 nm, 24 hr) was 119%. For the same molecule, the activity at 0.1 µM in the experiment with Rat white adipocytes is 85.5%.

As to `O=C(Nc1ccc(-c2ccc(NC(=O)c3cc([N+](=O)[O-])ccc3Cl)cc2)cc1)c1ccccc1` [Example 120, N-[4-(4-Benzoylaminophenyl)phenyl]-(2-chloro-5-nitrophenyl)carboxamide], the activity at 1 µM in the experiment with leptin production (24 h, 1 μM) is 121%. Besides, in the experiment on leptin production (24 h), the activity at 0.001 µM came out at 108% and the activity at 0.01 µM came out at 110%. In addition, in the experiment with leptin production (24 h, 100 nm), the activity at 0.1 µM worked out at 119%. The activity at 0.1 µM in the experiment on Rat white adipocytes is 79.8%.

Consider `CCN(C)c1ccc(-c2ccc(NC(=O)c3cc([N+](=O)[O-])ccc3Cl)cc2)cc1` [Example 218, N-[4-[4-(N-Ethyl-N-methylamino)phenyl]phenyl]-(2-chloro-5-nitrophenyl)carboxamide], for which the activity at 0.1 µM with Rat white adipocytes is 31.7%.

For the molecule `O=C(Nc1ccc(-n2ccnc2)cc1)c1cc([N+](=O)[O-])ccc1Cl` [Example 174, N-[4-(Imidazol-1-yl)phenyl]-(2-chloro-5-nitrophenyl)carboxamide], in the experiment on leptin production (24 h), the activity at 0.001 µM was found to be 118%. Also, the activity at 0.01 µM in the experiment on leptin production (24 h) came to 123%. Also, the activity at 0.1 µM with leptin production (24 h, 100 nm) amounted to 127%; with Rat white adipocytes, 68.8%.

On to `O=C(Nc1ccc(-c2ccc(N3CCCCC3)cc2)cc1)c1cc([N+](=O)[O-])ccc1Cl` [Example 177, N-[4-[4-(Piperidin-1-yl)phenyl]phenyl]-(2-chloro-5-nitrophenyl)carboxamide], for which, in the experiment with leptin production (24 h, 1 μM), the activity at 1 µM turned out to be 145%. The activity at 0.01 µM in the experiment with leptin production (24 h) was 121%. The activity at 0.1 µM came to 134% in the experiment on leptin production (24 h, 100 nm) and 14% with Rat white adipocytes.

For the molecule `Nc1ccc(-c2ccc(NC(=O)c3cc([N+](=O)[O-])ccc3Cl)cc2)cc1` [Example 192, N-[4-(4-Aminophenyl)phenyl]-(2-chloro-5-nitrophenyl)carboxamide], the “Facilitating activity to produce leptin” value in the experiment with leptin production (1 μM, 24 hr) is recorded as 112.1%; with leptin production (100 nm, 24 hr), 121.7%. Moreover, the activity at 0.01 µM with leptin production (24 h) was determined as 122%. In addition, the “Rate of Differentiation (%)” value with Rat white adipocytes amounted to 17.6%.

Take `O=C(Nc1nc2cc(Cl)ccc2o1)c1cc([N+](=O)[O-])ccc1Cl` [Example 75, N-(5-Chlorobenzoxazol-2-yl)-(2-chloro-5-nitrophenyl)carboxamide]: the activity at 0.1 µM worked out at 118% with leptin production (24 h, 100 nm) and 88.6% with Rat white adipocytes.

On to `O=C(Nc1ccc([N+](=O)[O-])cc1)c1cc([N+](=O)[O-])ccc1Cl` [Example 23, N-(4-Nitrophenyl)-(2-chloro-5-nitrophenyl)carboxamide], for which the activity at 1 µM with leptin production (1 μM, 24 hr) was 110%. Further, in the experiment with leptin production (24 hr), the activity at 0.001 µM was 134% and the activity at 0.01 µM amounted to 138%. The activity at 0.1 µM in the experiment on leptin production (100 nm, 24 hr) is 158%. For the same molecule, the activity at 0.1 µM in the experiment with Rat white adipocytes was found to be 57.7%.

As for `O=C(Nc1ccc(-c2ccc(NC(=S)Nc3cccc(F)c3)cc2)cc1)c1cc([N+](=O)[O-])ccc1Cl` [Example 245, N-[4-[4-[(3-Fluorophenyl)aminothiocarbonylamino]phenyl]phenyl]-(2-chloro-5-nitrophenyl)carboxamide], in the experiment with leptin production (24 h, 1 μM), the activity at 1 µM was determined as 111%. In the experiment on leptin production (24 h), the activity at 0.01 µM turned out to be 111%. In addition, in the experiment with Rat white adipocytes, the activity at 0.1 µM worked out at 36.1%.

`CCCN(CCC)c1ccc(-c2ccc(NC(=O)c3cc([N+](=O)[O-])ccc3Cl)cc2)cc1` [Example 194, N-[4-[4-(N,N-Dipropylamino)phenyl]phenyl]-(2-chloro-5-nitrophenyl)carboxamide]: the activity at 0.1 µM in the experiment on Rat white adipocytes is 37.1%.

In the case of `CCNc1ccc(-c2ccc(NC(=O)c3cc([N+](=O)[O-])ccc3Cl)cc2)cc1` [Example 205, N-[4-[4-(N-Ethylamino)phenyl]phenyl]-(2-chloro-5-nitrophenyl)carboxamide], the activity at 1 µM with leptin production (24 h, 1 μM) was 120%. In addition, in the experiment with leptin production (24 h), the activity at 0.01 µM stood at 123%. For the same molecule, the activity at 0.1 µM turned out to be 123% with leptin production (24 h, 100 nm) and 39.8% with Rat white adipocytes.

For `CC(C)(C)OC(=O)Nc1ccc(-c2csc(NC(=O)c3cc([N+](=O)[O-])ccc3Cl)n2)cc1` [Example 190, N-[4-(4-tert-Butoxycarbonylaminophenyl)thiazol-2-yl]-(2-chloro-5-nitrophenyl)carboxamide], the activity at 0.1 µM with Rat white adipocytes was 64.2%.

Turning to “N-[3-(Pyrrolidinylsulfonyl)phenyl]-(2-chloro-5-nitrophenyl)carboxamide [Example 154]”, the “Facilitating activity to produce leptin” value in the experiment with leptin production (1 μM, 24 hr) was 116.9%; in the experiment with leptin production (100 nm, 24 hr), 109.5%.

As for `O=C(Nc1cnccn1)c1cc([N+](=O)[O-])ccc1Cl` [Example 140, N-(Pyrazin-2-yl)-(2-chloro-5-nitrophenyl)carboxamide], the activity at 0.1 µM in the experiment with leptin production (24 h, 100 nm) was 114%.

Consider `CC(C)(C)c1cc(NS(=O)(=O)c2cccc(NC(=O)c3cc([N+](=O)[O-])ccc3Cl)c2)cc(C(C)(C)C)c1O` [Example 161, N-[3-[(3,5-di-tert-Butyl-4-hydroxyphenyl)aminosulfonyl]phenyl]-(2-chloro-5-nitrophenyl)carboxamide], for which the activity at 1 µM in the experiment on leptin production (24 h, 1 μM) stood at 131%.

Take `CC(=O)c1cccc(NC(=O)c2cc([N+](=O)[O-])ccc2Cl)c1` [Example 156, N-(3-Acetylphenyl)-(2-chloro-5-nitrophenyl)carboxamide]: the activity at 1 µM in the experiment with leptin production (24 h, 1 μM) came to 112%. Further, in the experiment on leptin production (24 h, 100 nm), the activity at 0.1 µM amounted to 118%.

Regarding `O=C(Nc1nc(-c2ccc(Cl)c(Cl)c2)cs1)c1cc([N+](=O)[O-])ccc1Cl` [Example 43, N-[4-(3,4-Dichlorophenyl)thiazol-2-yl]-(2-chloro-5-nitrophenyl)carboxamide], the activity at 1 µM with leptin production (24 h, 1 μM) is 111%. Also, in the experiment on leptin production (24 h, 100 nm), the activity at 0.1 µM amounted to 112%.
